Key:
C^PDX;R^LSL;F mice = assay: CA19-9 mediated pancreatitis in Dox-treated C^PDX;R^LSL;F mice (H&E, serum amylase and lipase, pEGFR IHC); assay type: in vivo, mouse
Experimental: All animal experiments were conducted in accordance with procedures approved by the IACUC at Cold Spring Harbor Laboratory. Mice were enrolled onto experimental studies between 6 and 8 weeks of age. Mice were administered Doxycycline through drinking water (0.5-2 mg/ml) supplemented with 10 mg/ml Sucrose for study durations up to one week. […] EdU (300 μg, Santa Cruz) was intraperitoneally administered bi-daily for three consecutive days. Cerulein was administered in 8 hourly doses of 200 μl (10 μg/ml) intraperitoneally for 48 hours and C57Bl/6J mice were allowed to recover for 24 or 72 hours.
Formalin-fixed, paraffin-embedded blocks were sectioned and de-paraffinized. Antigen retrieval was performed in Citrate buffer for 6 minutes in a pressure cooker unless otherwise specified. […] The slides were then rinsed in tap water and transferred to the Cadenza system. Slides were blocked in 3% BSA in TBST for one hour at room temperature and incubated in primary antibody overnight. Slides were washed three times in TBST, then incubated in horse radish peroxidase-conjugated secondary antibody for one hour at room temperature. The slides were washed three times in TBST and disassembled from the Cadenza system. ImmPACT DAB (Vector) was incubated for 1-10 minutes followed by a water wash and incubation in Hematoxylin counterstain. The slides were then dehydrated and coverslipped in cytoseal 60.
Slides were scanned using an Aperio CS2 scanner (Leica) and the total occupied pixel area was calculated in Imagescope (Leica). Affected pancreatitis areas on H&E stained slides were manually annotated and the uninvolved and affected areas were measured. Pancreatitis areas were defined by the presence of infiltrating lymphocytes, acinar intralobular swelling, acinar to ductal metaplasia, fibrosis and fat cell replacement. The number of Ki67-positive nuclei were counted manually in five representative high-powered fields from least four animals per group.
Amylase and Lipase levels in plasma (lithium heparin, BD biosciences) was measured by IDEXX Pathology services. CA19-9 levels were measured using the human cancer biomarker assay (EMD Millipore) on the MagPIX multiplex ELISA platform (Luminex). Blood glucose levels were measured using an Accu-Chek Nano monitor (Roche) on the lateral saphenous vein. […] The CA19-9 coated plates were washed in 0.05% Tween 20 in PBS and blocked in 1% BSA in wash buffer before incubation 10 μl of mouse plasma in a final volume of 100 μl of blocking buffer

C57Bl/6J mice [1] = assay type: in vivo; conditions: Sucrose or Dox Sucrose, Vehicle or Erlotinib
Experimental: KPC mice (Kras^+/LSL-G12D; Trp53^+/R172H; Pdx1-Cre) have been described previously (Hingorani S R, et al., Cancer Cell. 2003; 4(6):437-50; Hingorani S R, et al., Cancer Cell. 2005; 7(5):469-83) and were backcrossed onto the C57Bl/6J background (The Jackson Laboratory, strain 000664). All animal experiments were conducted in accordance with procedures approved by the IACUC at Cold Spring Harbor Laboratory. Mice were enrolled onto experimental studies between 6 and 8 weeks of age. Mice were administered Doxycycline through drinking water (0.5-2 mg/ml) supplemented with 10 mg/ml Sucrose for study durations up to one week. Doxycycline was administered through chow for experimental studies longer than one week, which is designed to deliver 2-3 mg of doxycycline per day based on the consumption of 4-5 g/day per mouse (Harlan Teklad, dietTD.01306, Doxycycline 625 mg). […] Blood glucose levels were measured using the ACCU-CHECK Nano (Roche) on the 414 lateral saphenous vein.
Amylase and Lipase levels in plasma (lithium heparin, BD biosciences) was measured by IDEXX Pathology services. CA19-9 levels were measured using the human cancer biomarker assay (EMD Millipore) on the MagPIX multiplex ELISA platform (Luminex). Blood glucose levels were measured using an Accu-Chek Nano monitor (Roche) on the lateral saphenous vein. […]

C57Bl/6J mice [2] = assay: Cerulein model of acute pancreatitis, immune cell types by flow cytometry; assay type: in vivo, mouse; conditions: for immune cell type representation in the spleen or lymph nodes / immune cells in the pancreas following induction of pancreatitis: flow cytometry
Experimental: KPC mice (Kras^+/LSL-G12D; Trp53^+/R172H; Pdx1-Cre) have been described previously (Hingorani S R, et al., Cancer Cell. 2003; 4(6):437-50; Hingorani S R, et al., Cancer Cell. 2005; 7(5):469-83) and were backcrossed onto the C57Bl/6J background (The Jackson Laboratory, strain 000664). All animal experiments were conducted in accordance with procedures approved by the IACUC at Cold Spring Harbor Laboratory. Mice were enrolled onto experimental studies between 6 and 8 weeks of age. Mice were administered Doxycycline through drinking water (0.5-2 mg/ml) supplemented with 10 mg/ml Sucrose for study durations up to one week. Doxycycline was administered through chow for experimental studies longer than one week, which is designed to deliver 2-3 mg of doxycycline per day based on the consumption of 4-5 g/day per mouse (Harlan Teklad, dietTD.01306, Doxycycline 625 mg). EdU (300 μg, Santa Cruz) was intraperitoneally administered bi-daily for three consecutive days. Cerulein was administered in 8 hourly doses of 200 μl (10 μg/ml) intraperitoneally for 48 hours and C57Bl/6J mice were allowed to recover for 24 or 72 hours. Blood glucose levels were measured using the ACCU-CHECK Nano (Roche) on the 414 lateral saphenous vein.
Spleens and lymph nodes were mechanically dissociated, homogenized, and passed through a nylon cell strainer (BD Falcon) in FACS buffer (eBioscience). Pancreas were mechanically dissociated and digested with 0.4 mg/mL liberase, 0.05 mg/mL collagenase D, and 0.1 mg/mL DNase I (Roche) in DMEM (Gibco) supplemented with 10% FCS at 37° C. for 30 min and suspensions were passed through a nylon cell strainer.
Staining was performed by incubating cells on a plate shaker, for 15 min at 4° C., with antibodies in FACS buffer (eBioscience). Multicolor flow cytometric analyses were performed using a LSR Fortessa cytometer (BD Biosciences). Gating strategies for all flow cytometric experiments are further described below.

Compound | ability to substitute for anti-CA19-9 therapy (C^PDX;R^LSL;F mice; Erlotinib 24 hours prior to the induction of pancreatitis) | weight loss (C^PDX;R^LSL;F mice; Erlotinib 24 hours prior to the induction of pancreatitis, humane end point prior to study completion) | pancreatic atrophy at necropsy (C^PDX;R^LSL;F mice; Erlotinib plus Dox) | vacuolization of the acinar compartment by histology (C^PDX;R^LSL;F mice; Erlotinib plus Dox) | relation of the effects to Erlotinib toxicity in normal mice (C57Bl/6J mice [1]) | immune cell type representation in the spleen or lymph nodes (C57Bl/6J mice [2]) | immune cells in the pancreas following induction of pancreatitis (C57Bl/6J mice [2]) | immune cell type representation in the spleen or lymph nodes (C57Bl/6J mice [2]; listed as cerulein) | immune cells in the pancreas following induction of pancreatitis (C57Bl/6J mice [2]; listed as cerulein) | recruitment of T- or B-cells (C57Bl/6J mice [2]; time points examined 1-3 days)
C#Cc1cccc(Nc2ncnc3cc(OCCOC)c(OCCOC)cc23)c1 [Erlotinib] | unable to substitute | more than 20% | evident | apparent | unrelated to toxicity | – | – | – | – | –
Cerulein | – | – | – | – | – | without change | influx of inflammatory monocytes and macrophages | without any change | treatment-dependent influx of inflammatory monocytes and macrophages | Neither model exhibited recruitment

Reference: patent US12378320B2, “Methods for treating pancreatitis” (Cold Spring Harbor Laboratory, priority 2018, dated 2025)
